Source: US12655101B2, “Small molecules with antibacterial activity” (NEW MEXICO TECH UNIVERSITY RESEARCH PARK CORPORATION, priority 2021, dated 2026)
Converted amounts (≈) assume the structure as drawn. Where two headings read alike, the source gives them in different places.

How the values were obtained:
A. baumannii ATCC 1515 = assay: Membrane depolarization detected by DiOC2(3); assay type: cell-based; settings: 1xMIC; for cell membrane depolarization: 20 μM CCCP, 25 minutes
A. baumannii ATCC 15151 [1] = assay: ATP decrease (luciferase); assay type: cell-based; settings: 1xMIC and 2xMIC; 25 minutes
MRSA ATCC BAA-44 = assay: MIC on MRSA ATCC BAA-44; assay type: cell-based, S. aureus; settings: for MIC: Staphylococcus aureus
Method: MRSA BAA-44: MRSA ATCC BAA-44 was grown from a glycerol stock by placing a small volume of cells onto a Mueller-Hinton agar plate (MHA). The MHA plate was incubated overnight at 37° C. A single colony was used to inoculate Mueller-Hinton broth (MHB) to obtain a bacterial broth suspension. The MHB broth suspension was grown at 37° C. on a rotary shaking incubator (100 rpm) for 12 hours. The bacterial cell concentration was adjusted to ˜5×10^5 colony forming units per milliliter (CFU/mL) in MHB−/+10, 20, or 40% FBS using optical density (OD) at 595 nm. 500 μL aliquots of the adjusted bacterial cell suspension were placed into borosilicate glass tubes. The cell suspensions were treated with 100 μM compound of interest and serially diluted two-fold. The culture tubes were incubated for 18 hours at 37° C. Efficacy was either assessed visually or by adding 10% v/v MTT (5 mg/mL stock) after the 18 hour incubation period, where the cell suspensions were subsequently incubated for 10 minutes to allow the MTT reagent to carry out the colorimetric reaction.

A. baumannii ATCC 15151 [2] = assay: MIC on A. baumannii ATCC 15151; assay type: cell-based; settings: Acinetobacter baumannii, ATCC15151; A. baumannii ATCC 15151 (heading of Example 9)
[3] = test system: A. baumannii ATCC BAA-1797; assay: Colony counts of A. baumannii ATCC BAA-1797 treated with 4xMIC for 16 hours; assay type: cell-based; settings: for kill of A. baumannii ATCC BAA-1797: 4xMIC (24 μM Compound 25, 24 μM Compound 26, 100 μM Compound 27, 48 μM Compound 14, 100 μM Compound 15)
[4] = test system: drug-resistant A. baumannii strains obtained from the CDC and Prevention Antimicrobial Isolate Bank; assay: MIC on drug-resistant A. baumannii strains from the CDC Antimicrobial Isolate Bank; assay type: cell-based; settings: Acinetobacter baumannii, 18 h
HeLa cells = assay: HeLa cell toxicity IC50 (MTT); assay type: cell-based; settings: Homo sapiens, 10% FBS
Method: HeLa cells: HeLa cells were trypsinized and counted in number of cells/mL using a hemocytometer. Cells were then plated at 4×10^3 HeLa cells/100 μL in tissue culture-treated 96-well plates in DMEM+1% penicillin/streptomycin (P/S)+10% FBS. HeLa cells were treated with 100 μM of a compound of interest and serially diluted two-fold. Samples were also prepared with no treatment, 1% DMSO, and 100 μM PAO. The cells were incubated for 48 hours at 37° C. in a humidified incubator with 5% CO2. 10% v/v MTT reagent (5 mg/mL stock) was added to each sample, and the samples were incubated for 2 hours before removing the supernatant and solubilizing the samples in 100 μL DMSO. OD readings were obtained at 595 nm. IC50 values were reported.

A. baumannii ATCC 15151 [5] = assay: microbe, parasite or virus in culture; assay type: cell-based; settings: for change of MIC from Day 0 to Day 30 / development of resistance: 30 days; for MIC: Acinetobacter baumannii; for Evolution of resistance?: Table 7
Method: A. baumannii ATCC 15151 was grown from a glycerol stock by placing a small volume of cells onto a MHA plate. The MHA plate was incubated overnight at 37° C. A single colony was subsequently used to inoculate MHB to obtain a bacterial broth suspension. The MHB broth suspension was grown at 37° C. on a rotary shaking incubator (100 rpm) for 12 hours. The bacterial cell concentration was adjusted to ˜5×10^5 CFU/mL in MHB or MHB using OD at 595 nm. […] (PAO) and the negative control was non-treated cells. All treatments were performed in triplicate. The plate was incubated for 20 hours at 37° C. in a Tecan plate reader, where the cells were shaken every hour and an OD reading was taken at 600 nm. […] These cells were again plated in a 96-well plate and incubated as before. This was performed a total of 30 days.

[6] = test system: A. baumannii ATCC BAA-1797; assay: MIC on A. baumannii ATCC BAA-1797; assay type: cell-based; settings: Acinetobacter baumannii
Summary of the method: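 Cells adjusted to ~5×10^5 CFU/mL in MHB or MHB with 10%, 20% or 40% FBS, treated with two-fold serial compound dilutions in glass tubes and incubated 18 hours at 37° C. Growth read visually or by MTT (10% v/v, 10 min) with OD at 595 nm.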

[7] = 18 h, read-out: MIC in the presence of 40% FBS, MRSA ATCC BAA-44, 40% FBS
[8] = MRSA ATCC BAA-44, absence of serum, read-out: MIC in the absence of serum
[9] = MRSA ATCC BAA-44, serum not stated, read-out: MIC
[10] = A. baumannii CDC AR033, 18 hours, read-out: MIC values for AR033
[11] = HeLa, Table 7, read-out: IC50 on HeLa in 10% FBS
[12] = HeLa cells, read-out: IC50 10% FBS
[13] = ATCC15151, 0 h, read-out: Starting MIC Day 0, A. baumannii ATCC 15151, Day 0
[14] = ATCC15151, read-out: Final MIC Day 30, A. baumannii ATCC 15151, Day 30
[15] = ATCC 1797 / ATCC BAA-1797, 0% FBS, read-out: MIC (μM) in MDR A. baumannii ATCC 1797 0% FBS
[16] = ATCC 1797 / ATCC BAA-1797, 10% FBS, read-out: MIC (μM) in MDR A. baumannii ATCC 1797 10% FBS
[17] = ATCC 1797 / ATCC BAA-1797, read-out: MIC (μM) in MDR A. baumannii ATCC 1797 40% FBS, 40% FBS
[18] = ATCCBAA1797, 18 h, read-out: MIC in the presence of 40% FBS, A. baumannii ATCC BAA-1797, 40% FBS
[19] = ATCCBAA1797, Table 7, 10% FBS, read-out: MIC in 10% FBS
[20] = ATCCBAA1797, Table 7, no serum stated, read-out: MIC
[21] = ATCCBAA1797, read-out: MIC in 40% FBS (μM), Table 7, 40% FBS
[22] = A. baumannii CDC AR083, 18 hours, read-out: MIC values for AR083
[23] = ATCCBAA1797, A. baumannii ATCC BAA-1797, absence of serum, read-out: MIC in the absence of serum

Row | Compound | cell membrane depolarization (A. baumannii ATCC 1515) | ATP decrease (A. baumannii ATCC 15151 [1]) | MIC (MRSA ATCC BAA-44; [7]) | MIC (MRSA ATCC BAA-44; [8]) | MIC (MRSA ATCC BAA-44; [9]) | MIC (A. baumannii ATCC 15151 [2]) | Kill at 4X MIC at 16 hours [3] | kill of A. baumannii ATCC BAA-1797 [3] | MIC [4, 10] | IC50 (HeLa cells; [11]) | IC50 (HeLa cells; [12]) | change of MIC from Day 0 to Day 30 (A. baumannii ATCC 15151 [5]) | Evolution of resistance? (A. baumannii ATCC 15151 [5]) | MIC [6, 15] | MIC [6, 16] | MIC [6, 17] | MIC [6, 18] | MIC [6, 19] | MIC [6, 20] | MIC [6, 21] | further results
1 | Nc1cccc2[nH]cc(/C=N/Nc3ccc(Cl)cc3)c12 [Compound 14, (E)-3-((2-(4-chlorophenyl)hydrazineylidene)methyl)-1H-indol-4-amine] | depolarized the cell membrane | caused a decrease in ATP | 100 µM | 50 µM (≈ 14.2 µg/mL) | 50 to 100 µM (≈ 14.2 to 28.5 µg/mL) | 6 µM (≈ 1.71 µg/mL) | 5-logs | ~5 orders of magnitude | 25 µM (≈ 7.12 µg/mL) | 36.7 ± 3.8 µM | 36.7 ± 3.8 µM | 8 fold | Yes; >6-fold | 6 µM (≈ 1.71 µg/mL) | > 100 µM | 50 µM (≈ 14.2 µg/mL) | 50 µM | > 100 µM | 6 µM (≈ 1.71 µg/mL) | 50 µM (≈ 14.2 µg/mL) | toxicity to MRSA BAA-44 (MRSA ATCC BAA-44; absence of serum): toxic; MIC ([4]; read-out: MIC values for AR083): 12.5 µM (≈ 3.56 µg/mL); development of resistance (A. baumannii ATCC 15151 [5]): significant resistance; MIC (A. baumannii ATCC 15151 [5]; [13]): 12.5 µM (≈ 3.56 µg/mL); MIC (A. baumannii ATCC 15151 [5]; [14]): ≥ 100 µM; MIC ([6]; ATCCBAA1797, read-out: MIC in the absence of serum): 12.5 µM (≈ 3.56 µg/mL); MIC ([6]; ATCCBAA1797, read-out: MIC in the presence of 40% human serum, A. baumannii ATCC BAA-1797, 40% human serum): > 100 µM
2 | Clc1ccc(N/N=C/c2c[nH]c3ccc(Br)cc23)cc1 [Compound 15, (E)-5-bromo-3-((2-(4-chlorophenyl)hydrazineylidene)methyl)-1H-indole] | – | caused a decrease in ATP | > 100 µM | 50 µM (≈ 17.4 µg/mL) | – | 12.5 µM (≈ 4.36 µg/mL) | 6-logs | ~5 orders of magnitude | 25 µM (≈ 8.72 µg/mL) | 20.9 ± 1.5 µM | 20.9 ± 1.5 µM | – | Yes; >4-fold | 12.5 µM (≈ 4.36 µg/mL) | > 100 µM | 50 µM (≈ 17.4 µg/mL) | 100 µM | > 100 µM | 12.5 µM (≈ 4.36 µg/mL) | > 100 µM | cell membrane depolarization over time (A. baumannii ATCC 1515; 10, 20, 30, and 50 minutes): caused the most depolarization; MIC [4, 22]: 12.5 µM (≈ 4.36 µg/mL); MIC [6, 23]: 6 µM (≈ 2.09 µg/mL)
3 | Cl.Clc1ccc(N/N=C/c2c[nH]c3cccc(OCc4ccccc4)c23)cc1 [Compound 26, (E)-2-((4-(benzyloxy)-1H-indol-3-yl)methylene)-1-(4-chlorophenyl)hydrazin-1-ium] | depolarized the cell membrane | caused a decrease in ATP | – | – | 25 µM | 3 µM | 5-logs | ~5 orders of magnitude | 6 µM | 37.3 ± 1.8 µM | 37.3 ± 1.8 µM | 2 fold | Yes; 2-fold | 6 µM | > 100 µM | 100 µM | 50 µM | > 100 µM | 6 µM | 100 µM | MIC (MRSA ATCC BAA-44; no serum (note in the cell), read-out: MIC (μM) in MRSA BAA-44): 50 µM; MIC [4, 22]: 6 µM; development of resistance (A. baumannii ATCC 15151 [5]): slight resistance; MIC (A. baumannii ATCC 15151 [5]; [13]): 6 µM; MIC (A. baumannii ATCC 15151 [5]; [14]): 12 µM; MIC ([6]; ATCCBAA1797, A. baumannii ATCC BAA-1797, 10% FBS, read-out: MIC in the presence of 10% FBS): > 100 µM; MIC [6, 23]: 5 µM
